Results taken from patent US10988478B1, “Pyrazolo[1,5a]pyrimidine derivatives as IRAK4 modulators” (Genentech, Inc., priority 2015, dated 2021).

Molecular target: human IRAK4 (Homo sapiens (Human), UniProt Q9NWZ3)
Experiment: IRAK4 kinase inhibition, Transcreener fluorescence polarization ADP assay
Format: biochemical
Settings: recombinant full-length His6-IRAK4; 125 uM ATP; 90 min; Ki computed using ATP Km 642 uM
Procedure: Compounds were assayed for inhibition of human IRAK4 and IRAK1 catalytic activity using recombinant enzyme produced from insect cells. Full-length IRAK4 protein, carrying an N-terminal His6-Tag, was obtained from Life Technologies (Carlsbad, Calif., USA). The IRAK1 construct was produced internally and was comprised of IRAK1 residues Arg194 to Ser712, preceded by an NH2-terminal His6 tag and the coding sequence for glutathione-S-transferase.

human IRAK4, sequence (Q9NWZ3 whole entry): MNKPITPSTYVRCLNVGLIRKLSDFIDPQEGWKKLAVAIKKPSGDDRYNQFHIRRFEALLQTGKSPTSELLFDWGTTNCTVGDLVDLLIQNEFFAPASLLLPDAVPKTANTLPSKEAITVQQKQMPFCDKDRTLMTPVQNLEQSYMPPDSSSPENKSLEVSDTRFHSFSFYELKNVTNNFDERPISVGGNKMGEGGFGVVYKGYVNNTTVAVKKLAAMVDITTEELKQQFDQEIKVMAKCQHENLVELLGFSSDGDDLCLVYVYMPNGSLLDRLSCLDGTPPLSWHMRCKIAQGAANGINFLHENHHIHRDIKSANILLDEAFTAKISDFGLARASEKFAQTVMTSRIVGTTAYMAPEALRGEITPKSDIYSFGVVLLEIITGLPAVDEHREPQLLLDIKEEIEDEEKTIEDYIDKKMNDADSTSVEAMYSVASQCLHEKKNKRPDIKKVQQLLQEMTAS

With `C[C@@]1(CO)Cc2cc(NC(=O)c3cnn4cccnc34)c(N3CCC(CO)CC3)cc2O1` [Example 130, (S)—N-(2-(hydroxymethyl)-6-(4-(hydroxymethyl)piperidin-1-yl)-2-methyl-2,3-dihydrobenzofuran-5-yl)pyrazolo[1,5-a]pyrimidine-3-carboxamide] as the compound, how does the Ki read?
Its Ki is 3.3 nM.

Which Ki does the source give for `C[C@@]1(CO)Cc2cc(NC(=O)c3cnn4cc(F)cnc34)c(N3CCN(CC(F)F)CC3)cc2O1` [Example 132, (S)—N-(6-(4-(2,2-Difluoroethyl)piperazin-1-yl)-2-(hydroxymethyl)-2-methyl-2,3-dihydrobenzofuran-5-yl)-6-fluoropyrazolo[1,5-a]pyrimidine-3-carboxamide] here?
The Ki was 4.8 nM.

`C[C@]1(CO)Cc2cc(NC(=O)c3cnn4cc(F)cnc34)c(N3CCN(CC(F)F)CC3)cc2O1` [Example 133, (R)—N-(6-(4-(2,2-Difluoroethyl)piperazin-1-yl)-2-(hydroxymethyl)-2-methyl-2,3-dihydrobenzofuran-5-yl)-6-fluoropyrazolo[1,5-a]pyrimidine-3-carboxamide] was tested. Which Ki did it give?
Its Ki is 4.1 nM.

How did the Ki turn out when `CC1(C)Cc2cc(NC(=O)c3cnn4cccnc34)c(N3CCN(C(C)(C)CO)CC3)cc2O1` [Example 137, N-[6-[4-(2-Hydroxy-1,1-dimethyl-ethyl)piperazin-1-yl]-2,2-dimethyl-3H-benzofuran-5-yl]pyrazolo[1,5-a]pyrimidine-3-carboxamide] was run?
The Ki was 170 nM.

How did the Ki turn out when `CC(C)N1Cc2cc(NC(=O)c3cnn4cccnc34)c(N3CCOCC3)cc2C1=O` [Example 138, N-(2-Isopropyl-6-morpholino-1-oxoisoindolin-5-yl)pyrazolo[1,5-a]pyrimidine-3-carboxamide] was run?
Its Ki is 6.8 nM.

Which Ki does the source give for `CC(C)(O)[C@H](F)CN1Cc2cc(NC(=O)c3cnn4cccnc34)c(N3CCOCC3)cc2C1=O` [Example 139, (R)—N-(2-(2-Fluoro-3-hydroxy-3-methylbutyl)-6-morpholino-1-oxoisoindolin-5-yl)pyrazolo[1,5-a]pyrimidine-3-carboxamide] here?
Its Ki is 1.5 nM.

For `CN1Cc2cc(NC(=O)c3cnn4cccnc34)c(N3CCOCC3)cc2C1=O` [Example 140, N-(2-Methyl-6-morpholino-1-oxoisoindolin-5-yl)pyrazolo[1,5-a]pyrimidine-3-carboxamide], which Ki is on record?
The Ki was 26 nM.

With `CC1(CO)CCc2cc(NC(=O)c3cnn4cccnc34)c(N3CCOCC3)cc2O1` (stereo not shown) [Example 141, N-(2-(Hydroxymethyl)-2-methyl-7-morpholinochroman-6-yl)pyrazolo[1,5-a]pyrimidine-3-carboxamide] as the compound, how does the Ki read?
The Ki was 16 nM.

For `O=C(Nc1cc2c(cc1N1CCOCC1)OC1(CCNCC1)C2)c1cnn2cccnc12` [Example 142, N-(6-Morpholinospiro[3H-benzofuran-2,4′-piperidine]-5-yl)pyrazolo[1,5-a]pyrimidine-3-carboxamide], which Ki is on record?
Its Ki is 20 nM.

`CC1(C)Cc2cc(NC(=O)c3cnn4cccnc34)c(N3CCOCC3)c(C#N)c2O1` [Example 143, N-(7-Cyano-2,2-dimethyl-6-morpholino-2,3-dihydrobenzofuran-5-yl)pyrazolo[1,5-a]pyrimidine-3-carboxamide] was tested. Which Ki did it give?
The Ki was 740 nM.

Which Ki does the source give for `Cc1cnc2c(C(=O)Nc3cc4c(cc3N3CCOCC3)OC(C)(C(F)F)C4)cnn2c1` (stereo not shown) [Example 144, N-(2-(Difluoromethyl)-2-methyl-6-morpholino-2,3-dihydrobenzofuran-5-yl)-6-methylpyrazolo[1,5-a]pyrimidine-3-carboxamide] here?
The Ki was 13 nM.

How did the Ki turn out when `CCOP(=O)(OCC)OCC1CCN(c2cc3c(cc2NC(=O)c2cnn4cccnc24)CC(C)(C)O3)CC1` [Example 145, [1-[2,2-Dimethyl-5-(pyrazolo[1,5-a]pyrimidine-3-carbonylamino)-3H-benzofuran-6-yl]-4-piperidyl]methyl diethyl phosphate] was run?
Its Ki is 130 nM.

Which Ki does the source give for `CN1CC2(Cc3cc(NC(=O)c4cnn5cccnc45)c(N4CCOCC4)cc3O2)C1` [Example 146, N-(1-methyl-6′-morpholino-3′H-spiro[azetidine-3,2′-benzofuran]-5′-yl)pyrazolo[1,5-a]pyrimidine-3-carboxamide] here?
Its Ki is 27 nM.

How did the Ki turn out when `O=C(Nc1cc2c(cc1N1CCOCC1)OC1(C2)CN(CC(F)F)C1)c1cnn2cccnc12` [Example 147, N-(1-(2,2-Difluoroethyl)-6′-morpholino-3′H-spiro[azetidine-3,2′-benzofuran]-5′-yl)pyrazolo[1,5-a]pyrimidine-3-carboxamide] was run?
Its Ki is 23 nM.

How did the Ki turn out when `O=C(Nc1cc2c(cc1N1CCOCC1)OC1(C2)CN(CC(F)(F)F)C1)c1cnn2cccnc12` [Example 148, N-[6-Morpholino-1′-(2,2,2-trifluoroethyl)spiro[3H-benzofuran-2,3′-azetidine]-5-yl]pyrazolo[1,5-a]pyrimidine-3-carboxamide] was run?
Its Ki is 6.1 nM.

For `CC1(C)Cc2cc(NC(=O)c3cnn4cccnc34)c(N3CCCN(CC(F)F)CC3)cc2O1` [Example 149, N-(6-(4-(2,2-difluoroethyl)-1,4-diazepan-1-yl)-2,2-dimethyl-2,3-dihydrobenzofuran-5-yl)pyrazolo[1,5-a]pyrimidine-3-carboxamide], which Ki is on record?
The Ki was 25 nM.

For `CC(C)C1(C)Cc2cc(NC(=O)c3cnn4cccnc34)c(N3CCOCC3)cc2O1` (stereo not shown) [Example 150, N-(2-Isopropyl-2-methyl-6-morpholino-2,3-dihydrobenzofuran-5-yl)pyrazolo[1,5-a]pyrimidine-3-carboxamide], which Ki is on record?
Its Ki is 89 nM.

With `CC(C)(O)CN1CCN(c2cc3c(cc2NC(=O)c2cnn4cccnc24)CC(C)(CO)O3)CC1` (stereo not shown) [Example 151, N-(6-(4-(2-Hydroxy-2-methylpropyl)piperazin-1-yl)-2-(hydroxymethyl)-2-methyl-2,3-dihydrobenzofuran-5-yl)pyrazolo[1,5-a]pyrimidine-3-carboxamide] as the compound, how does the Ki read?
Its Ki is 72 nM.

For `CN1CCC2(CC1)Cc1cc(NC(=O)c3cnn4cccnc34)c(N3CCOCC3)cc1O2` [Example 152, N-(1′-Methyl-6-morpholino-3H-spiro[benzofuran-2,4′-piperidine]-5-yl)pyrazolo[1,5-a]pyrimidine-3-carboxamide], which Ki is on record?
Its Ki is 12 nM.

Which Ki does the source give for `O=C(Nc1cc2c(cc1N1CCOCC1)O[C@](CO)(C(F)(F)F)C2)c1cnn2cccnc12` [Example 153, (R)—N-(2-(hydroxymethyl)-6-morpholino-2-(trifluoromethyl)-2,3-dihydrobenzofuran-5-yl)pyrazolo[1,5-a]pyrimidine-3-carboxamide] here?
The Ki was 14 nM.

Which Ki does the source give for `O=C(Nc1cc2c(cc1N1CCOCC1)O[C@@](CO)(C(F)(F)F)C2)c1cnn2cccnc12` [Example 154, (S)—N-(2-(hydroxymethyl)-6-morpholino-2-(trifluoromethyl)-2,3-dihydrobenzofuran-5-yl)pyrazolo[1,5-a]pyrimidine-3-carboxamide] here?
The Ki was 9.3 nM.

For `C[C@]1(COC(F)F)Cc2cc(NC(=O)c3cnn4cccnc34)c(N3CCOCC3)cc2O1` [Example 155, (R)—N-(2-((difluoromethoxy)methyl)-2-Methyl-6-morpholino-2,3-dihydrobenzofuran-5-yl)pyrazolo[1,5-a]pyrimidine-3-carboxamide], which Ki is on record?
The Ki was 22 nM.

For `C[C@@]1(COC(F)F)Cc2cc(NC(=O)c3cnn4cccnc34)c(N3CCOCC3)cc2O1` [Example 156, (S)—N-(2-((difluoromethoxy)methyl)-2-Methyl-6-morpholino-2,3-dihydrobenzofuran-5-yl)pyrazolo[1,5-a]pyrimidine-3-carboxamide], which Ki is on record?
Its Ki is 27 nM.

With `CC(C)(O)[C@@]1(C)Cc2cc(NC(=O)c3cnn4cccnc34)c(N3CCOCC3)cc2O1` [Example 157, (R)—N-(2-(2-Hydroxypropan-2-yl)-2-methyl-6-morpholino-2,3-dihydrobenzofuran-5-yl)pyrazolo[1,5-a]pyrimidine-3-carboxamide] as the compound, how does the Ki read?
The Ki was 8.8 nM.

With `CC(C)(O)[C@]1(C)Cc2cc(NC(=O)c3cnn4cccnc34)c(N3CCOCC3)cc2O1` [Example 158, (S)—N-(2-(2-Hydroxypropan-2-yl)-2-methyl-6-morpholino-2,3-dihydrobenzofuran-5-yl)pyrazolo[1,5-a]pyrimidine-3-carboxamide] as the compound, how does the Ki read?
Its Ki is 27 nM.

With `C[C@]1(C2CC2)Cc2cc(NC(=O)c3cnn4cccnc34)c(N3CCN(CC(F)F)CC3)cc2O1` [Example 159, (R)—N-(2-Cyclopropyl-6-(4-(2,2-difluoroethyl)piperazin-1-yl)-2-methyl-2,3-dihydrobenzofuran-5-yl)pyrazolo[1,5-a]pyrimidine-3-carboxamide] as the compound, how does the Ki read?
The Ki was 4.4 nM.

For `C[C@@]1(C2CC2)Cc2cc(NC(=O)c3cnn4cccnc34)c(N3CCN(CC(F)F)CC3)cc2O1` [Example 160, (S)—N-(2-Cyclopropyl-6-(4-(2,2-difluoroethyl)piperazin-1-yl)-2-methyl-2,3-dihydrobenzofuran-5-yl)pyrazolo[1,5-a]pyrimidine-3-carboxamide], which Ki is on record?
The Ki was 4.8 nM.

`C[C@]1(C2CC2)Cc2cc(NC(=O)c3cnn4cccnc34)c(N3CCC(F)(CO)CC3)cc2O1` [Example 161, (R)—N-(2-Cyclopropyl-6-(4-fluoro-4-(hydroxymethyl)piperidin-1-yl)-2-methyl-2,3-dihydrobenzofuran-5-yl)pyrazolo[1,5-a]pyrimidine-3-carboxamide] was tested. Which Ki did it give?
The Ki was 3.8 nM.

With `C[C@@]1(C2CC2)Cc2cc(NC(=O)c3cnn4cccnc34)c(N3CCC(F)(CO)CC3)cc2O1` [Example 162, (S)—N-(2-Cyclopropyl-6-(4-fluoro-4-(hydroxymethyl)piperidin-1-yl)-2-methyl-2,3-dihydrobenzofuran-5-yl)pyrazolo[1,5-a]pyrimidine-3-carboxamide] as the compound, how does the Ki read?
Its Ki is 4.5 nM.

With `C[C@]1(CO)Cc2cc(NC(=O)c3cnn4cc(Cl)cnc34)c(N3CCC(CO)CC3)cc2O1` [Example 163, (R)-6-Chloro-N-(2-(hydroxymethyl)-6-(4-(hydroxymethyl)piperidin-1-yl)-2-methyl-2,3-dihydrobenzofuran-5-yl)pyrazolo[1,5-a]pyrimidine-3-carboxamide] as the compound, how does the Ki read?
The Ki was 3.9 nM.

With `C[C@@]1(CO)Cc2cc(NC(=O)c3cnn4cc(Cl)cnc34)c(N3CCC(CO)CC3)cc2O1` [Example 164, (S)-6-Chloro-N-(2-(hydroxymethyl)-6-(4-(hydroxymethyl)piperidin-1-yl)-2-methyl-2,3-dihydrobenzofuran-5-yl)pyrazolo[1,5-a]pyrimidine-3-carboxamide] as the compound, how does the Ki read?
The Ki was 2.8 nM.
